[C(1O2)] = modified PNA monomer acting as cytosine, C(pOq) type, 1O2; [A(6)] = modified PNA monomer acting as adenine, A(p) type, p=6; [G(6)] = modified PNA monomer acting as guanine, G(p) type, p=6; {Fethoc} = N-terminal Fethoc cap; {NH2} = C-terminal amide
Tests used:
[1] = tested on: mouse TYR pre-mRNA; assay: TYR nested PCR for exon skipping in B16F10 cells; type: cell-based; details: 1 to 1,000 aM, 5 hours
Procedure: “TYR-ASO 4” was evaluated for its ability to induce the skipping of the mouse TYR exon 2 in B16F10 melanoma cells as follows. “TYR-ASO 4” may serve as a good surrogate compound for “TYR-ASO 1” which is fully complementary to the human TYR pre-mRNA. [Cell Culture & ASO Treatment] B16F10 mouse melanoma cells (Cat. Number CRL-6475, ATCC) were maintained in DMEM (Dulbecco's modified Eagle's essential minimum medium) supplemented with 10% FBS, 1% streptomycin/penicillin, and 0.01 mg/ml bovine insulin. B16F10 cells grown in 60 mm culture dish containing 5 mL DMEM were incubated for 5 hours with “TYR-ASO 4” at 0 (negative control), 1, 10, 100 or 1000 aM. [RNA Extraction & cDNA Synthesis by One-step PCR] Total RNA was extracted using “Universal RNA Extraction Kit” (Cat. Number 9767, Takara) according to the manufacturer's instructions. […] NO: 142); and TYR-exon 4_reverse: (5'→3') […] [Nested PCR Amplification] […] NO: 144); and TYR-exon 4n_reverse: (5'→3') […] [Identification of Exon Skipping Products] The PCR products were subjected to electrophoretic separation on a 2% agarose gel. The bands of target size were collected and analyzed by Sanger Sequencing.

[2] = tested on: melanogenesis in B16F10 cells; assay: Melanin content (melanogenesis) in B16F10 cells; type: cell-based, mouse; details: 1 to 1,000 aM, 24 hours
Procedure: “TYR-ASO 4” was evaluated for its ability to inhibit the melanogenesis in B16F10 cells as described below.
B16F10 cells grown in 60 mm culture dish containing 5 mL culture medium were treated either with “TYR-ASO 4” at 0 (negative control) or 1 to 1,000 aM, or with 10 or 100 μg/mL arbutin as a positive control. (2 culture dishes per dose) 24 hours later, the cells were subjected to lysis with 200 μL 1N NaOH. Each lysate was collected in 1.5 mL e-tube, and kept overnight at room temperature. The melanin content in each lysate was determined by absorbance at 475 nm on an ELISA reader. The experiment was repeated four times using cells at different passage. The four sets of the melanin content data were pooled for statistical analysis by student's t-test against the melanin content without treatment (negative control).

[3] = tested on: 10-mer complementary DNA; assay: Tm between PNA derivatives and 10-mer complementary DNA (N- or C-terminal); type: binding; details: uncorrected
Method in brief: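 Tm read by UV at 260 nm for duplexes formed by annealing (90 °C for a minute, slow cooling to ambient) of equimolar 4 μM PNA and complementary 10-mer DNA targeting N- or C-terminal, in 10 mM sodium phosphate, 100 mM NaCl, pH 7.16.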

[4] = tested on: full-length TYR mRNA; assay: TYR nested qPCR in B16F10 cells; type: cell-based, mouse; details: 1 to 1,000 aM
Procedure: [Cell Culture & ASO Treatment] B16F10 cells grown in 60 mm culture dish containing 5 mL culture medium were treated with “TYR-ASO 4” at 0 (negative control), 1, 10, 100 or 1000 aM. (2 culture dishes per dose)
[RNA Extraction & cDNA Synthesis by One-step PCR] Total RNA was extracted and subjected to cDNA synthesis as described in “TYR Example 1”.
[Nested qPCR Amplification]
[Statistical Analysis] The nested qPCR experiment was repeated independently four times, and individual mRNA levels from each experiment were normalized against the mRNA level without ASO treatment. The mRNA levels obtained from all the 4 separate experiments were pooled for statistical analysis by student's t-test. Thus the number of RNA samples is 8 per ASO concentration.

[5] = tested on: TYR protein; assay: TYR western blot in B16F10 cells; type: cell-based, mouse; details: 10 zM to 10 aM, 24 hours
Procedure: “TYR-ASO 4” was evaluated for its ability to inhibit the expression of TYR protein in B16F10 cells as described below.
B16F10 cells grown in 60 mm culture dish containing 5 mL culture medium were treated with “TYR-ASO 4” for 24 hours at 0 zM (negative control), 10 zM, 100 zM, 1 aM or 10 aM, and subjected to lysis with 200 μL 1× cell lysis buffer (Cat. No. 9803, Cell Signaling Tech) supplemented with 1× protease inhibitors cocktail (Cat. No. P8340, Sigma). 200 μL of each lysate was mixed with 100 μL 5× sample buffer, and boiled at 100° C. for 5 min. 20 μL of each lysate was subjected to electrophoretic separation on a 4-15% gradient TGX gel (Cat No. 456-1086, Bio-Rad), and protein transfer onto a 0.45 μm PVDF membrane. The membrane was probed with an anti-TYR antibody (Cat. No. 9319, Cell Signaling Tech) and an anti-3-actin antibody (Cat. No. a3845, Sigma).

[6] = tested on: SNAP25 protein; assay: SNAP25 western blot in PC12 cells; type: cell-based, rat; details: 100 or 1,000 zM, 48 hours or 72 hours
Procedure: “SNAP-ASO 3” was evaluated for its ability to inhibit the expression of the SNAP25 protein in PC12 cells as follows.
PC12 cells were grown in 60 mm culture dish containing 5 mL culture medium, and treated with “SNAP-ASO 3” at 0 zM (negative control), 1 zM, 10 zM, 30 zM, 100 zM, 300 zM, 1 aM, 3 aM or 10 aM for 48 hours. There were 4 culture dishes of the negative control to compensate for potential technical artifacts during the western blot analysis.
[Cell Lysis] Then the cells were subjected to lysis on ice with 200 μL 1×RIPA buffer (Cat. Number 9806, Cell Signaling Tech) supplemented with 1% SDS and 1× proteinase inhibitors cocktail (cOmplete Mini, Roche). The lysates were collected in 1.5 mL e-tube, mixed with 100 μL 5× sample buffer, and boiled for 5 min.
[Western Blot] The lysates were subjected to electrophoretic separation on a 4-15% TGX-PAGE gradient gel (Cat. Number 456-1086, Bio-Rad) and then transferred onto a 0.45 μm PVDF membrane. The membrane was probed with an anti-SNAP25 antibody (Cat. Number S9684, Sigma) and an anti-β-actin antibody (Cat. Number A3845, Sigma).
“SNAP-ASO 1” was evaluated for its ability to inhibit the SNAP25 protein expression in PC12 cells as described in “SNAP25 Example 4”, unless noted otherwise. PC12 cells were treated with “SNAP-ASO 1” at 0 (negative control), 100 or 1,000 zM either for 48 hours or for 72 hours. […]

[7] = tested on: SNAP25 protein; assay: SNAP25 IHC in skin of mice after topical administration; type: in vivo, C57BL/6 mice; details: topical 1, 10 or 100 fM solution, twice per day Days 0 to 4
Procedure: “SNAP-ASO 1” is a 16-mer ASO fully complementary to the 3′ splice site spanning the junction of intron 6 and exon 7 in the mouse SNAP25 pre-mRNA read out from the mouse genomic DNA [accessed from NCBI Reference Sequence: NC_000068]. “SNAP-ASO 1” was evaluated for its ability to inhibit the expression of SNAP25 protein in the skin upon topical administration as follows.
[Hair Cut and Grouping] In Day 0, 8 female C57BL/6 mice (5 weeks old) were anesthetized with zoletil/rompun, and the hair in the back (ca 3 cm×4 cm) was cut with a clipper. The mice were randomly assigned into 4 groups, i.e., no ASO treatment group (negative control) and 3 treatment groups of 1 fM, 10 fM and 100 fM “SNAP-ASO 1”. (2 animals per group)
[Topical Administration] Topical solutions were prepared by serially diluting an aqueous stock solution of “SNAP-ASO 1” in 30% (v/v) aqueous ethanol supplemented with 3% (v/v) glycerin to 0, 1, 10 and 100 fM “SNAP-ASO 1”. […]
[SNAP25 IHC] Skin samples were cryo-sectioned and immunostained in series with a primary anti-SNAP25 antibody (Cat. Number ab41455, Abcam) at 1:200 dilution, with a secondary anti-IgG (Cat Number BA-1100, Vector) at 1:200 dilution, and then with Dylight 594-streptavidin (Cat Number SA-5594, Vector, CA, USA) at 1:200 dilution for red fluorescence tagging. […]

[8] = tested on: full-length SNAP25 mRNA; assay: SNAP25 nested qPCR in PC12 cells; type: cell-based, rat
Procedure: [Cell Culture & ASO Treatment] PC12 cells grown in 60 mm culture dish containing 5 mL culture medium were treated with “SNAP-ASO 3” at 0 (negative control), 10, 100 or 1,000 zM. (2 culture dishes per ASO concentration) [RNA Extraction & cDNA Synthesis by One-step RT-PCR] Following an incubation with “SNAP-ASO 3” for 42 hours, the cells were treated 100 μg/mL cycloheximide for another 6 hours to freeze the ribosomal translation. Then total RNA was extracted from cells using “Universal RNA Extraction Kit” (Cat. Number 9767, Takara) according to the manufacturer's instructions. […] NO: 130); and SNAP-exon 14_reverse: (5'→3') […] [Nested qPCR Amplification] […] NO: 132); and SNAP-exon 8q_reverse: (5'→3') […] The qPCR reaction was followed with a Taqman probe of [(5'→3') 5,6-[…] NO: 134)] targeting the junction of exon 7 and exon 8 in order to quantify the full-length SNAP25 mRNA.

[9] = tested on: full-length TYR mRNA; assay: TYR nested qPCR in human primary epidermal melanocytes; type: cell-based; details: 1 zM to 10 aM, 5 hours
Procedure: [Cell Culture & ASO Treatment] Primary epidermal melanocytes (Cat. Number PCS-200-013, ATCC) cells were maintained in Dermal Cell Basal Medium (Cat Number PCS-200-030, ATCC) supplemented with Adult Melanocyte Growth Kit Component (Cat. Number PCS-200-042, ATCC). Melanocytes grown in 60 mm culture dish containing 5 mL culture medium were treated with “TYR-ASO 1” at 0 zM (negative control), 1 zM, 100 zM, or 10 aM. (3 culture dishes per concentration) [RNA Extraction & cDNA Synthesis by One-step PCR] Following an incubation with “TYR-ASO 1” for 5 hours, total RNA was extracted using “RNeasy Mini Kit” (Cat. Number 74106, Qiagen) according to the manufacturer's instructions. […] NO: 147); and TYR-exon 5_reverse: (5'→3') […] [Nested PCR Amplification] […] NO: 149); and TYR-exon 3n_reverse: (5'→3') […] NO: 150)] against a Taqman probe [(5'→3') 5,6-[…] NO: 151)].

Substance | TYR exon skipping by nested PCR [1] | decrease of melanin content [2] | Tm Value, 10-mer DNA against C-Terminal [3] | Tm Value, 10-mer DNA against N-Terminal [3] | decrease of full-length TYR mRNA level (qPCR) [4] | TYR protein level (western blot) [5] | expression of the SNAP25 protein (western blot) [6] | SNAP25 protein expression in the muscle layer of skin (IHC) [7] | decrease of full-length SNAP25 mRNA level (qPCR) ([8]; PC12 cells, 10 zM) | decrease of full-length SNAP25 mRNA level (qPCR) ([8]; PC12 cells, 100 zM) | decrease of full-length SNAP25 mRNA level (qPCR) ([8]; PC12 cells, 1,000 zM) | decrease of full-length TYR mRNA level (qPCR) [9]
Fethoc-CA(5)A-A(5)TG-A(5)TC(1O2)-TG(6)T-G-NH2 (antisense CAAATGATCTGTG; chemistry not fully specified) [TYR-ASO 4] | yielded essentially only the splice variant TYR mRNA lacking exons 2 and 3 | ~15% | 72.0 °C | 72.0 °C | ~40% | considerably higher in the lysates of the negative control |  |  |  |  |  | 
Fethoc-A(6)TT-TG(6)T-TA(6)C-CC(1O2)T-GG(6)G-A(6)-NH2 (ATTTGTTACCCTGGGA; all peptide nucleic acid (PNA), [A(6)] at 1, 8, 16, [G(6)] at 5, 14, [C(1O2)] at 11, 5' {Fethoc}, 3' {NH2}; peptide nucleic acid written N to C) [SNAP-ASO 1] |  |  |  |  |  |  | considerably inhibited | gradually decreased as the dose was increased | ~50% | 40% | 70% | 
Fethoc-CA(5)G-ACA(5)-ATC(1O2)-TG(6)T-A(5)-NH2 (antisense CAGACAATCTGTA; chemistry not fully specified) [TYR-ASO 1] |  |  | 73.0 °C | 78.0 °C |  |  |  |  |  |  |  | ~30%
